# Where “and” joins values, the source holds several entries; their conditions need not be identical. Equal values may be shown once.
# Legend:
# FXR [1] = target: T1, FXR (Homo sapiens, UniProt Q96RI1); test: FXR transactivation luciferase reporter assay in transfected HepG2 cells; details: HepG2 cells transfected with FXR; for EC50: EC50 FXR transactivation, 100 nM to 25 μM, mean ± standard error
# T1 sequence (Q96RI1 1-486): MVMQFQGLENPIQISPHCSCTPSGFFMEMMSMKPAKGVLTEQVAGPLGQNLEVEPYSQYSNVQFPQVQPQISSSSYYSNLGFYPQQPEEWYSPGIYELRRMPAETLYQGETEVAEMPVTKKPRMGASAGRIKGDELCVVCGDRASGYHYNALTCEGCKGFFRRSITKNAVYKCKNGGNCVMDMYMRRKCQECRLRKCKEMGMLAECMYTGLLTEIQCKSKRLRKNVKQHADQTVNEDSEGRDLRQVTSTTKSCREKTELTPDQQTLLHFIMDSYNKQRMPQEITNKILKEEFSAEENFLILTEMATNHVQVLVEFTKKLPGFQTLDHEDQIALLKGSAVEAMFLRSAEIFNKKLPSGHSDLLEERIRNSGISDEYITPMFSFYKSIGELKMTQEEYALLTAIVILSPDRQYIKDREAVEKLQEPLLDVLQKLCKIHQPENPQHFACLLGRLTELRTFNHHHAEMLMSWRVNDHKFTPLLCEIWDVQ
# T1 sequence (P19793 1-462 partner): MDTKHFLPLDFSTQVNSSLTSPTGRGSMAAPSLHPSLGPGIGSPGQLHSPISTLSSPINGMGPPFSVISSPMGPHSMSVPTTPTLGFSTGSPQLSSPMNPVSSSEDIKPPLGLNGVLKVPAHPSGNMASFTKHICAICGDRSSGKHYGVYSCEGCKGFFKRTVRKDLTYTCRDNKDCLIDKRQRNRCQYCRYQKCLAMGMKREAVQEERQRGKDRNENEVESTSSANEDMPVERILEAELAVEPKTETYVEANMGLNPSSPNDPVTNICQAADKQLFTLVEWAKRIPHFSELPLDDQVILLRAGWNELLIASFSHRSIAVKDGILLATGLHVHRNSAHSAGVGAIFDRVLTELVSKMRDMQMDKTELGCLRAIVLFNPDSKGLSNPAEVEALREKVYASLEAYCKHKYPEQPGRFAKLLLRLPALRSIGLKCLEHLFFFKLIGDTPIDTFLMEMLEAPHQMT
# Procedure: (A) HepG2 cells were transfected with pSG5-FXR, pSG5-RXR, pCMV-βgal, and p(hsp27)TKLUC vectors. […] CDCA (1, 10 μM) and 6-ECDCA (3, 1 μM) were used as a positive control. […] Cells were stimulated with 7–19 (10 μM). […] In both panels, results are expressed as mean ± standard error. *p < 0.05 versus not treated cells (NT).
# HepG2 cells were transfected with FXR as described above and used in a luciferase reporter assay. […] Results are expressed as mean ± standard error.
# For FXR and GP BAR1 mediated transactivations, HepG2 cells and HEK293T cells were transfected as described previously[25]. […] After treatments, 20 μL of cellular lysates were read using Dual Luciferase Reporter Assay System (Promega Italia s.r.l., Milan, Italy) according manufacturer specifications using the Glomax 20/20 luminometer (Promega Italia s.r.l., Milan, Italy). […] At 18 h post stimulations, cellular lysates were assayed for luciferase and Renilla activities using the Dual-Luciferase Reporter assay system (E1980, Promega). Luminescence was measured using Glomax 20/20 luminometer (Promega). Luciferase activities were normalized with Renilla activities.
# human GPBAR1 = target: T2, human GPBAR1 (Homo sapiens, UniProt Q8TDU6); test: GPBAR1 transactivation (cAMP responsive element luciferase reporter) in transfected HEK-293T cells; type: cell-based; details: for EC50: HEK-293T cells transfected with GPBAR1, concentration-response, mean ± standard error
# T2 construct: expressed in transfected cells; host or cells: HEK-293T
# T2 sequence (Q8TDU6 1-330): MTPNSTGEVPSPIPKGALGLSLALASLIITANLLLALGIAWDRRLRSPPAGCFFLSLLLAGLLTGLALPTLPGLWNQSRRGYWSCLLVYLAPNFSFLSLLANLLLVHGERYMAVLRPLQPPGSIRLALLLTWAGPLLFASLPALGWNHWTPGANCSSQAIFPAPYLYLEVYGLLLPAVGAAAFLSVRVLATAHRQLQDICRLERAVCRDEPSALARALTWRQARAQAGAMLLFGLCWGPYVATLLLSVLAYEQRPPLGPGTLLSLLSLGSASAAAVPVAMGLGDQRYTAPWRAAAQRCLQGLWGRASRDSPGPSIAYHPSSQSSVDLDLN
# Source text: Luciferase activities were normalized with Renilla activities.
# [2] = system: GPBAR1 target gene Pro-glucagon in GLUTAg cells; test: Real-time PCR of GPBAR1 target gene Pro-glucagon in GLUTAg cells; type: cell-based, mouse; details: 10 μM, relative to not treated cells
# Procedure: (§1) Figure 10 (A) Coactivator recruitment assay measuring a direct interaction of FXR with SRC-1; ligands at 2 μM. Results are expressed as percentage of the effect of 3 arbitrarily settled as 100%. NT is referred to the experiment in absence of ligand. […] (B,C) Real-time PCR analysis of mRNA expression on FXR target genes BSEP (B), and OSTα (C) in HepG2 cells primed with 10 μM of compound 19. CDCA (1) was used as a positive control at 10 μM. (D) Real-time PCR analysis of mRNA expression of GPBAR1 target gene Pro-glucagon in GLUTAg cells stimulated with 10 μM of compounds 7 and 19, and TLCA (2) used as a positive control at 10 μM. Values are normalized to GAPDH and are expressed relative to those of not treated cells (NT) which are arbitrarily settled to 1. The relative mRNA expression is expressed as 2(−ΔΔCt).
# (§2) Total RNA was isolated from HepG2 or GLUTAg cells using the TRIzol reagent according to the manufacturer’s specifications (Invitrogen). One microgram of purified RNA was treated with DNase-I and reverse transcribed with Superscript II (Invitrogen). For Real Time PCR, 10 ng template was dissolved in 25 μL containing 200 nmol/L of each primer and 12.5 μL of 2 × SYBR FAST Universal ready mix (Invitrogen). […] The relative mRNA expression was calculated and expressed as 2-(ΔΔCt). […]
# [3] = target: T3, GST-fusion FXR-LBD / SRC-1 peptide (Homo sapiens, UniProt Q96RI1); test: Alpha screen coactivator recruitment assay, direct interaction of FXR with SRC-1; type: biochemical; details: ligands at 2 μM, effect of 6-ECDCA (3) settled as 100%
# T3 construct: 10 nM of purified GST-tagged FXR-LBD protein
# T3 sequence (Q96RI1 262-486 limits assumed): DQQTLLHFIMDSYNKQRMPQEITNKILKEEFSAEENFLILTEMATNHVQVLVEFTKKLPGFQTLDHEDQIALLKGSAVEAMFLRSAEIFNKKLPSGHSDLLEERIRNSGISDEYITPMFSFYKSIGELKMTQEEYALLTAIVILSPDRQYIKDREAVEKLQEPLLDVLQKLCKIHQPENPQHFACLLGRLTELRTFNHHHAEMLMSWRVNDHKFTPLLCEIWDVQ
# T3 sequence (Q15788 676-700 partner limits assumed): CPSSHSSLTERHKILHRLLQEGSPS
# Procedure: CDCA (1) and 6-ECDCA (3) were used as positive controls at 2 μM concentration and the effect of 6-ECDCA (3) was settled as 100%. […] Results are expressed as percentage of the effect of 3 arbitrarily settled as 100%. NT is referred to the experiment in absence of ligand. […] (B,C) Real-time PCR analysis of mRNA expression on FXR target genes BSEP (B), and OSTα (C) in HepG2 cells primed with 10 μM of compound 19. CDCA (1) was used as a positive control at 10 μM. (D) Real-time PCR analysis of mRNA expression of GPBAR1 target gene Pro-glucagon in GLUTAg cells stimulated with 10 μM of compounds 7 and 19, and TLCA (2) used as a positive control at 10 μM. Values are normalized to GAPDH and are expressed relative to those of not treated cells (NT) which are arbitrarily settled to 1. The relative mRNA expression is expressed as 2(-ΔΔCt). Anti-GST-coated acceptor beads were used to capture the GST-fusion FXR-LBD whereas the biotinylated-SRC-1 peptide was captured by the streptavidin donor beads. Upon illumination at 680 nm, chemical energy is transferred from donor to acceptor beads across the complex streptavidin-Donor/Src-1-Biotin/[…]-LBD/Anti-GST-Acceptor and a signal is produced. The assay was performed in white, low-volume, 384-well Optiplates (PerkinElmer) using a final volume of 25 μL containing final concentrations of 10 nM of purified GST-tagged FXR-LBD protein, 30 nM biotinylated Src-1 peptide, 20 μg/mL anti-GST acceptor beads acceptor beads and 10 μg/mL of streptavidin donor bead (PerkinElmer). The assay buffer contained 50 mM Tris (pH 7.4), 50 mM KCl, 0.1% BSA, and 1 mM DTT. The stimulation times with 1 μL of tested compound (dissolved in 50% DMSO/H2O) were fixed to 30 min at room temperature. The concentration of DMSO in each well was maintained at a final concentration of […]. After the addition of the detection mix (acceptor and donor beads) the plates were incubated in the dark for 4 h at room temperature and then were read in Envision microplate analyzer (PerkinElmer).
# [4] = system: FXR target genes BSEP and OSTα in HepG2 cells; test: Real-time PCR of FXR target genes BSEP and OSTα in HepG2 cells; type: cell-based, human; details: 10 μM, relative to not treated cells
# Procedure: as §1, §2
# PBC patients = system: PBC patients; set-up: method as in PMID 25500425; details: cited from earlier work
# [5] = system: rodent models of portal hypertension; set-up: method as in PMID 26539823; details: cited from earlier work
# FXR [6] = target: T1, FXR; set-up: method as in PMID 25247751; details: any concentration tested; cited from earlier work
# GPBAR1 = system: GPBAR1; set-up: method as in PMID 25247751; details: cited from earlier work
# [7] = system: animal models of non-obstructive cholestasis; set-up: method as in PMID 26177448; details: cited from earlier work
smiles,measurement,setting,value
CCC1C(O)C2C3CCC(C(C)CC(=O)O)C3(C)CCC2C2(C)CCCCC12 (stereo not drawn) [compound 13],EC50,FXR [1],2300 nM and 2320 nM
same,EC50,human GPBAR1,4300 nM
CCC1C(O)C2C3CCC(C(C)CCO)C3(C)CCC2C2(C)CCC(O)CC12 (stereo not drawn) [compound 7],GPBAR1 potency compared with TLCA (2),"human GPBAR1; HEK-293T cells transfected with GPBAR1, 10 μM",potency similar to that of TLCA
same,GPBAR1 transactivation (cAMP-luciferase reporter gene),"human GPBAR1; HEK-293T cells transfected with GPBAR1, compounds at 10 μM",inducers of cAMP-luciferase reporter gene
same,EC50,human GPBAR1,910 nM
same,Pro-glucagon gene expression,[2],increased pro-glucagon gene expression
same,Recruitment of SRC-1 co-activator to FXR,[3],completely unable to recruit SRC-1
CCC1C(O)C2C3CCC(C(C)CCCCCOS(=O)(=O)O)C3(C)CCC2C2(C)CCC(O)CC12 (stereo not drawn) [compound 19],BSEP mRNA upregulation,[4],2 fold
same,OSTα mRNA expression,[4],robust induction of OSTα mRNA
same,EC50,FXR [1],1700 nM
same,FXR transactivation (luciferase reporter),FXR [1]; compounds at 10 μM,the most potent FXR agonist generated in this study
same,EC50,human GPBAR1,950 nM
same,Pro-glucagon gene expression,[2],increased pro-glucagon gene expression
same,Recruitment of SRC-1 co-activator to FXR,[3],"at least comparable, if not better, to that measured for 3"
CCC1C(O)C2C3CCC(C(C)CCO)C3(C)CCC2C2(C)CCC(O)CC12 (stereo not drawn) [compound 14],EC50,FXR [1],5300 nM
same,EC50,human GPBAR1,1000 nM and 1020 nM
"CC[C@H]1[C@@H](O)[C@@H]2[C@H](CC[C@]3(C)[C@@H]([C@H](C)CCC(=O)O)CC[C@@H]23)[C@@]2(C)CC[C@@H](O)C[C@@H]12 [6-ECDCA/OCA, 6-ECDCA]",Patients who experienced the symptoms (pruritus),PBC patients,approx. 80%
same,PBC patients who halted the treatment due to the severity of itching,PBC patients; one trial,up to 40%
C/C=C1/[C@H](O)C2C3CC[C@H]([C@H](C)CCO)[C@@]3(C)CCC2[C@@]2(C)CC[C@@H](O)C[C@@H]12 (stereo partly drawn) [compound 10],Recruitment of SRC-1 co-activator to FXR,[3],completely unable to recruit SRC-1
"CC[C@@H]1[C@H](O)[C@@H]2[C@H](CC[C@]3(C)[C@@H]([C@H](C)CCCO)CC[C@@H]23)[C@@]2(C)CC[C@@H](O)C[C@@H]12 [compound 6, EUDCOH]",Portal pressure,[5],exerts portal pressure-lowering effects
same,FXR transactivation,FXR [6],failing in transactivating FXR at any concentration tested
same,EC50,GPBAR1,1030 nM
CC[C@H]1[C@@H](O)[C@@H]2[C@H](CC[C@]3(C)[C@@H]([C@H](C)CCO)CC[C@@H]23)[C@@]2(C)CC[C@@H](O)C[C@@H]12 [compound 5],Liver damage and itching,[7],attenuates liver damage in animal models of non-obstructive cholestasis without inducing itching
CC[C@@H]1[C@@H](O)C2C3CC[C@H]([C@H](C)CCO)[C@@]3(C)CCC2[C@@]2(C)CC[C@@H](O)C[C@@H]12 (stereo partly drawn) [compound 9],Recruitment of SRC-1 co-activator to FXR,[3],completely unable to recruit SRC-1

# — publication PMC4933954, “Navigation in bile acid chemical space: discovery of novel FXR and GPBAR1 ligands” (Scientific Reports, 2016)
